The values that follow come from patent US20190367516A1 (Bayer Pharma Aktiengesellschaft, priority 2015, published 2019).

Structures are written as SMILES.

The assay addresses T1, human M2 receptor (Homo sapiens, UniProt P08172).
T1 sequence (P08172 1-466): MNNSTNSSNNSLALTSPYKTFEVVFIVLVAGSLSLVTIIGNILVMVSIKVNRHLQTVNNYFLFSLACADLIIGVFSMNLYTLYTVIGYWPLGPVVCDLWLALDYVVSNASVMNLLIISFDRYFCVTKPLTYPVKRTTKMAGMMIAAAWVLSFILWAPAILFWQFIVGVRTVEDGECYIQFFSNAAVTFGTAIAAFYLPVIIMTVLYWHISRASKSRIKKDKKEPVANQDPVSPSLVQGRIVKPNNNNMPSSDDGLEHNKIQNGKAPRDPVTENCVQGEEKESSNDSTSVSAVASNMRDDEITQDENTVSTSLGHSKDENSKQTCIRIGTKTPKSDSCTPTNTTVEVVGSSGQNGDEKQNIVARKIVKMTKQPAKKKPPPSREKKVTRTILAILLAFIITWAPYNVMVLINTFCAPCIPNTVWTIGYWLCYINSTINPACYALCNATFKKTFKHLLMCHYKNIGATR
Particulars: Receptor activity EC50, M2-GIRK1/4 activation test, acetylcholine at EC20; allosteric potency; in some cases mean values from two or more determinations.
In general, EC50 refers to the concentration needed to bring the measured effect to its halfway point. Consider `CC(C)Nc1ccc2c(=O)c(C(=O)NC34CC5CC(CC(C5)C3)C4)cn(-c3ccc(F)cc3F)c2n1` [Example 158, 1-(2,4-Difluorophenyl)-4-oxo-7-(propan-2-ylamino)-N-(tricyclo[3.3.1.1^3,7]dec-1-yl)-1,4-dihydro-1,8-naphthyridine-3-carboxamide], for which the EC50 was 184 nM.
Then `CNc1ccc2c(=O)c(C(=O)NC34CC5CC(C3)CC(C(F)(F)F)(C5)C4)cn(-c3ccc(F)cc3F)c2n1` [Example 160, 1-(2,4-Difluorophenyl)-7-(methylamino)-4-oxo-N-[3-(trifluoromethyl)tricyclo[3.3.1.1^3,7]dec-1-yl]-1,4-dihydro-1,8-naphthyridine-3-carboxamide], with 85 nM; and `CNc1ccc2c(=O)c(C(=O)NC34CC5CC(C3)C(F)(F)C(C5)C4)cn(-c3ccc(F)cc3F)c2n1` [Example 161], with 137 nM; and `CNc1ccc2c(=O)c(C(=O)NC34CCC(CC3)CC4)cn(-c3ccc(F)cc3F)c2n1` [Example 162], with 38 nM.
With `O=C(NC12CC3CC(CC(C3)C1)C2)c1cn(-c2ccc(F)cc2F)c2nc(N3CCCCC3=O)ccc2c1=O` [Example 165, 1-(2,4-Difluorophenyl)-4-oxo-7-(2-oxopiperidin-1-yl)-N-(tricyclo[3.3.1.1^3,7]dec-1-yl)-1,4-dihydro-1,8-naphthyridine-3-carboxamide], the EC50 worked out at 11 nM.
As for `O=C(NC12CC3CC(CC(C3)C1)C2)c1cn(-c2ccc(F)cc2F)c2nc(N3CCCS3(=O)=O)ccc2c1=O` [Example 167], the figure is 47 nM; as for `CN(c1ccc2c(=O)c(C(=O)NC34CC5CC(CC(C5)C3)C4)cn(-c3ccc(F)cc3F)c2n1)S(C)(=O)=O` [Example 169], 101 nM; as for `O=C(NC12CC3CC(CC(C3)C1)C2)c1cn(-c2ccc(F)cc2F)c2nc(N3C[C@@H](O)CC3=O)ccc2c1=O` [Example 170], 19 nM.
As for `O=C(NC12CC3CC(CC(C3)C1)C2)c1cn(-c2ccc(F)cc2F)c2nc(N3CC(F)(F)CCC3=O)ccc2c1=O` [Example 171], the figure is 30 nM; as for `O=C(NC12CC3CC(CC(C3)C1)C2)c1cn(-c2ccc(F)cc2F)c2nc(N3CCOCC3=O)ccc2c1=O` [Example 172], 83 nM; as for `O=C(NC12CC3CC(CC(C3)C1)C2)c1cn(-c2ccc(F)cc2F)c2nc(N3CCC(O)CC3=O)ccc2c1=O` (stereo not shown) [Example 173], 88 nM.
As for `CC[C@@H](NC(=O)c1cn(-c2ccc(F)cc2F)c2nc(N3CCCCC3=O)ccc2c1=O)C(F)(F)F` [Example 178], the figure is 197 nM.
As to `CC(NC(=O)c1cn(-c2ccc(F)cc2F)c2nc(N3CCCC3=O)ccc2c1=O)C(F)(F)F` (stereo not shown) [Example 179], a half-maximal effect (EC50) was put at 169 nM.
Then `CCC(NC(=O)c1cn(-c2ccc(F)cc2F)c2nc(N3CCCS3(=O)=O)ccc2c1=O)C(F)(F)F` (stereo not shown) [Example 180], with 115 nM; and `O=C(NCc1c(Cl)cccc1Cl)c1cn(-c2ccc(F)cc2F)c2nc(N3CCCS3(=O)=O)ccc2c1=O` [Example 182, N-(2,6-Dichlorobenzyl)-1-(2,4-difluorophenyl)-7-(1,1-dioxido-1,2-thiazolidin-2-yl)-4-oxo-1,4-dihydro-1,8-naphthyridine-3-carboxamide], with 182 nM.
As for `CC(C)(NC(=O)c1cn(-c2ccc(F)cc2F)c2nc(N3CCNC3=O)ccc2c1=O)c1c(F)cccc1F` [Example 184, 1-(2,4-Difluorophenyl)-N-[2-(2,6-difluorophenyl)propan-2-yl]-4-oxo-7-(2-oxoimidazolidin-1-yl)-1,4-dihydro-1,8-naphthyridine-3-carboxamide], the figure is 129 nM.
As for `O=C(NC12CC3CC(CC(C3)C1)C2)c1cn(-c2ccc(F)cc2F)c2nc(N3CCNC3=O)ccc2c1=O` [Example 186, 1-(2,4-Difluorophenyl)-4-oxo-7-(2-oxoimidazolidin-1-yl)-N-(tricyclo[3.3.1.1^3,7]dec-1-yl)-1,4-dihydro-1,8-naphthyridine-3-carboxamide], the figure is 30 nM; as for `CC[C@@H](NC(=O)c1cn(-c2ccc(F)cc2F)c2nc(N3CC(OC(=O)NC)CC3=O)ccc2c1=O)C(F)(F)F` (stereo partly drawn) [Example 200, (3S)-1-[8-(2,4-Difluorophenyl)-5-oxo-6-{[(2R)-1,1,1-trifluorobutan-2-yl]carbamoyl}-5,8-dihydro-1,8-naphthyridin-2-yl]-5-oxopyrrolidin-3-yl methyl carbamate], 293 nM.
`CC(NC(=O)c1cn(-c2ccc(F)cc2F)c2nc(N3C[C@@H](O)CC3=O)ccc2c1=O)c1ccccc1F` (stereo partly drawn) [Example 235, 1-(2,4-Difluorophenyl)-N-[1-(2-fluorophenyl)ethyl]-7-[(4S)-4-hydroxy-2-oxopyrrolidin-1-yl]-4-oxo-1,4-dihydro-1,8-naphthyridine-3-carboxamide] registered an EC50 of 207 nM.
Then `COCC(C)(NC(=O)c1cn(-c2ccc(F)cc2F)c2nc(N3C[C@@H](O)CC3=O)ccc2c1=O)C(F)(F)F` (stereo partly drawn) [Example 236, 1-(2,4-Difluorophenyl)-7-[(4S)-4-hydroxy-2-oxopyrrolidin-1-yl]-4-oxo-N-[1,1,1-trifluoro-3-methoxy-2-methylpropan-2-yl]-1,4-dihydro-1,8-naphthyridine-3-carboxamide], with 860 nM; and `O=C(NC1(C(F)(F)F)CCOCC1)c1cn(-c2ccc(F)cc2F)c2nc(N3C[C@@H](O)CC3=O)ccc2c1=O` [Example 237, 1-(2,4-Difluorophenyl)-7-[(4S)-4-hydroxy-2-oxopyrrolidin-1-yl]-4-oxo-N-[4-(trifluoromethyl)tetrahydro-2H-pyran-4-yl]-1,4-dihydro-1,8-naphthyridine-3-carboxamide], with 751 nM.
For the compound `O=C(NC(c1c(F)cccc1F)C(F)(F)F)c1cn(-c2ccc(F)cc2F)c2nc(N3CCCC(O)C3=O)ccc2c1=O` (stereo not shown) [Example 247, 1-(2,4-Difluorophenyl)-N-[1-(2,6-difluorophenyl)-2,2,2-trifluoroethyl]-7-[3-hydroxy-2-oxopiperidin-1-yl]-4-oxo-1,4-dihydro-1,8-naphthyridine-3-carboxamide], the response was half-maximal at 160 nM (EC50). Compared with the last compound, the EC50 is about 4.7-fold lower.
As for `CC[C@@H](NC(=O)c1cn(-c2ccc(F)cc2F)c2nc(N3C[C@@H](C(=O)OC)OC3=O)ccc2c1=O)C(F)(F)F` [Example 257, Methyl (5S)-3-[8-(2,4-difluorophenyl)-5-oxo-6-{[(2R)-1,1,1-trifluorobutan-2-yl]carbamoyl}-5,8-dihydro-1,8-naphthyridin-2-yl]-2-oxo-1,3-oxazolidine-5-carboxylate], the figure is 138 nM; as for `O=C(NC(c1ccccc1Cl)C(F)(F)F)c1cn(-c2ccc(F)cc2F)c2nc(N3CC[C@H](O)C3=O)ccc2c1=O` (stereo partly drawn) [Example 298, N-[1-(2-Chlorophenyl)-2,2,2-trifluoroethyl]-1-(2,4-difluorophenyl)-7-[(3S)-3-hydroxy-2-oxopyrrolidin-1-yl]-4-oxo-1,4-dihydro-1,8-naphthyridine-3-carboxamide], 74 nM; as for `O=C(NC(c1ccccc1Cl)C(F)(F)F)c1cn(-c2ccc(F)cc2F)c2nc(N3CC[C@@H](O)C3=O)ccc2c1=O` (stereo partly drawn) [Example 299, N-[1-(2-Chlorophenyl)-2,2,2-trifluoroethyl]-1-(2,4-difluorophenyl)-7-[(3R)-3-hydroxy-2-oxopyrrolidin-1-yl]-4-oxo-1,4-dihydro-1,8-naphthyridine-3-carboxamide], 56 nM.
